# Literature values as cited in publication PMC5643362 (Acta Diabetologica, 2017).
# Key:
# [1] = system: dipeptidyl peptidase IV
# [2] = system: neural endopeptidase
substance,measurement,setting,value
Exendin-4,Resistance to dipeptidyl peptidase IV,[1],resistant
same,Resistance to neural endopeptidase,[2],resistant
